This passage reports Kd and expression_or_secretion results from PMC5407854, “Inhibitor of ppGalNAc-T3-mediated O-glycosylation blocks cancer cell invasiveness and lowers FGF23 levels” (eLife, 2017).

For one data set, the target named is T1, ppGalNAc-T3 (Homo sapiens, UniProt Q14435).
T1 construct: gene GALNT3; purified lumenal domain (containing catalytic and lectin domains)
T1 sequence (Q14435 38-633 limits assumed): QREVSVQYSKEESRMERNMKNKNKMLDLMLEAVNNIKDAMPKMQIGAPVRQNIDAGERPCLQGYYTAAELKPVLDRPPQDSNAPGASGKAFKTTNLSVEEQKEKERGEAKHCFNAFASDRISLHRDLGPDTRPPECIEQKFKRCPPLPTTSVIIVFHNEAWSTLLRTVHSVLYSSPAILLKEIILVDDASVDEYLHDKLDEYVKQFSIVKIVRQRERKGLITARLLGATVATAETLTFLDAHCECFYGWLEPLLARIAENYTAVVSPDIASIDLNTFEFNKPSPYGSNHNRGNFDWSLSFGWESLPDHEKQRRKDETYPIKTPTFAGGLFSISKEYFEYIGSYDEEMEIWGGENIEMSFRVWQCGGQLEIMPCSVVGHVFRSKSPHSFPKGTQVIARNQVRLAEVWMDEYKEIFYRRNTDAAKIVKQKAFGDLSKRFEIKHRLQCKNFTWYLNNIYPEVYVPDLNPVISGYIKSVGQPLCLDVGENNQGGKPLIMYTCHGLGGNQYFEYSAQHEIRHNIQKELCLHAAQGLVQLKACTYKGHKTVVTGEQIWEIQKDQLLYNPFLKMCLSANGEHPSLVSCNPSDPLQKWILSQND
The experiment in a line: intrinsic tryptophan fluorescence quenching; also UDP-Glo inhibition of purified enzyme (IC50 […]). The format is binding.

A short description of data set [1]: anti-FLAG immunoblot of cell lysates, with or without chloroquine. The conditions noted are these: glycan lost; control: untreated.

The Kd is a measure of binding affinity in units of concentration.

Molecule `O=C(Nc1ccc(Nc2ccncc2)cc1)c1ccc(Nc2ccnc3ccc([N+](=O)[O-])cc23)cc1` [compound 1614, T3Inh-1] came in with a Kd on ppGalNAc-T3 of about 17 µM.

B1: FGF23: T3Inh-1 (protein)
parent chain: MLGARLRLWVCALCSVCSMSVLRAYPNASPLLGSSWGGLIHLYTATARNSYHLQIHKNGHVDGAPHQTIYSALMIRSEDAGFVVITGVMSRRYLCMDFRGNIFGSHYFDPENCRFQHQTLENGYDVYHSPQYHFLVSLGRAKRAFLPGMNPPPYSQFLSRRNEIPLIHFNTPIPRRHTRSAEDDSERDPLNVLKPRARMTPAPASCSQELPSAEDNSPMASDPLGVVRGGRVNTHAGGTGPEGCRPFAKFI
As to B1, the expression_or_secretion entry in data set [1] is reported as “no change”.
